Reference: patent US20230270816A1, “COMBINATION OF ANTINEOPLASTIC ANTIBIOTICS AND BCL-2 INHIBITORS FOR THE TREATMENT OF NPM-1-DRIVEN ACUTE MYELOID LEUKEMIA (AML)” (INSERM (INSTITUTE NATIONAL DE LA SANTÉ ET DE LA RECHERCHE …, priority 2020, published 2023)
Like-named read-outs stand apart in the source and are kept apart here. Starred links: 1 amine or outer side, 2 acyl side, 3 side chain; linkers in the order of their positions; H or OH if unused. Positions of bridges follow the written chain, without caps; N, C: chain ends. Non-standard residues stand in square brackets, D forms with d. Residues, ends and D or L forms follow the SMILES beside them. Chains are numbered I, II in the order given. Actinocin(9to1) = Cc1c2oc3c(C)ccc(C(=O)[*:1])c3nc-2c(C(=O)[*:2])c(N)c1=O; NMeV = CN[C@H](C(=O)O)C(C)C; Sar = CNCC(=O)O

What was measured:
AML3 cells [1] = assay: Mitochondrial network and function in AML3 cells; format: cell-based
Excerpt: (§1) Conversely, we used Thenoyl-trifluoroacetone (TTFA) a well-characterized inhibitor of mitochondrial complex II and major inducer of ROS.

complex II = target: T1, complex II (Homo sapiens, UniProt P31040); assay: Electron transport chain complex activity; format: biochemical; conditions: but not complex I or IV; primarily in NPM1c-expressing cells
T1 construct: endogenous in cells; host or cells: NPM1c-expressing cells (not further specified; the same paragraph mentions AML3, AML2-NPM1c and NPM1c-ES cells)

PML NBs = assay: PML nuclear body (NB) reformation ex vivo; format: cell-based; conditions: for effect of ROS scavenger on ActD NB-restoration: AML2-NPM1c cells
Excerpt: as §1

AML3 cells [2] = assay: Senescence markers and clonogenic activity in AML3 cells; format: cell-based; conditions: for clonogenic activity: AML3 cells
Excerpt: as §1

[3] = test system: primary human NPM1c-AML blasts; assay: Immune-deficient mice xenografted with primary human NPM1c-AML blasts; format: in vivo
Excerpt: FIG. 2: ActD enhances Venetoclax anti-leukaemic effects. Response to ActD and/or Venetoclax in a transplantable AML model initiated by NPM1c+IDH1^R132H mutation. A, GFP abundance in bone marrow samples collected at treatment interruption and B, survival curve, n=2. C, abundance of human AML cells in xenografted mice treated for two weeks. Combined therapy induces AML regression.
(§2) We first assessed ActD response in primary cells.
(§3) We therefore explored the ActD/Venetoclax interaction in different NPM1c-driven AML models in vivo. […] Thus, ActD and Venetoclax dramatically synergized to clear AMLs in vivo.

murine NPM1c-driven AML = assay: Murine NPM1c-driven AML model; conditions: mouse, in vivo
Excerpt: as §2, §3

leukemic blasts = assay: AML patient treated with a single ActD course; format: in vivo
TP53 [4] = test system: TP53
NPM1c-AML = conditions: Half of NPM1c-AML patients; single agent; cited from earlier work
AML2-NPM1c cells = assay: Growth of isogenic AML2-NPM1c / AML2-NPM1 cells; format: cell-based; conditions: AML2-NPM1c vs AML2-NPM1 cells; inhibition of JAK1/2 signalling
Excerpt: TFAM reduction may reflect transcriptional down-regulation of PGC1A by IFN signalling^16. Importantly, stable NPM1c expression drove PGC1α hyperacetylation resulting in its functional inactivation, possibly through PML NB downregulation (data not shown)^10. These altered mitochondria and release of mtDNA into the cytoplasm activate multiple downstream intracellular stress pathway, particularly IFN and NFKB targets (data not shown), at least in part through cGAS (cyclic GMP-AMP synthase) activation and cGAMP production (data not shown). Other stress pathways, such as oxidative stress or unfolded protein response were also activated (data not shown), resulting in decreased protein synthesis (data not shown). Western blot analyses comparing AML2-NPM1c to AML2-NPM1 cells validated activation of multiple stress pathways by the NPM1c oncogene, including the up-regulation of key TP53-repressed metabolic enzymes (data not shown). As expected, these mitochondrial alterations yielded decreased ATP/ADP+AMP or GTP/GDP+GMP ratios, reflecting metabolic stress (data not shown). Stress responses could directly or indirectly favour leukaemogenesis^20-22. […] These mitochondrial defects may constitute targetable intrinsic weaknesses and, for example, account for the exquisite clinical sensitivity of NPM1c-AMLs to Bcl2 antagonists^23.

TP53 [5] = assay: Doxorubicin mitochondrial rounding and TP53 activation; format: cell-based
Excerpt: Targeting mitochondrial function by antibiotics was proposed as a therapeutic option for cancer^35,36 and mitochondrial status modulates chemotherapy response^37,38. Actinomycin D drives mitochondrial alterations prior to detectable activation of the ribosomal or DNA damage checkpoints. Actinomycin D inhibits complex II activity, which may reflect its structural similarity with FAD, one of its electron transporters. This may explain how ActD induces ROS, immediate early response genes, sensitizes cells to apoptosis or initiates immunogenic cell death^39. Complex II is important in hematopoietic progenitors^40, and regulated by PML^41, contributing to ActD therapeutic index in AML blasts. In vivo, ActD triggered features of mitochondria-induced senescence^26. Downstream of acute mitochondrial stress, our experiments reveal a key role of ROS signalling and PML/TP53 senescence (data not shown), drawing an unexpected similarity with acute promyelocytic leukemia, where NBs reformation drive response to arsenic therapy^12,42. In that respect, complex II poisoning has activity in APL models^43. […] Clinically, as both antineoplastic antibiotics (e.g. ActD) and BCL-2 inhibitors (e.g. Venetoclax) have remarkable clinical activity in NPM1c-AMLs, the dramatic synergy outlined here should rapidly be evaluated in patients.

[6] = leukemic blasts from peripheral blood

T1 sequence (P31040 43-664): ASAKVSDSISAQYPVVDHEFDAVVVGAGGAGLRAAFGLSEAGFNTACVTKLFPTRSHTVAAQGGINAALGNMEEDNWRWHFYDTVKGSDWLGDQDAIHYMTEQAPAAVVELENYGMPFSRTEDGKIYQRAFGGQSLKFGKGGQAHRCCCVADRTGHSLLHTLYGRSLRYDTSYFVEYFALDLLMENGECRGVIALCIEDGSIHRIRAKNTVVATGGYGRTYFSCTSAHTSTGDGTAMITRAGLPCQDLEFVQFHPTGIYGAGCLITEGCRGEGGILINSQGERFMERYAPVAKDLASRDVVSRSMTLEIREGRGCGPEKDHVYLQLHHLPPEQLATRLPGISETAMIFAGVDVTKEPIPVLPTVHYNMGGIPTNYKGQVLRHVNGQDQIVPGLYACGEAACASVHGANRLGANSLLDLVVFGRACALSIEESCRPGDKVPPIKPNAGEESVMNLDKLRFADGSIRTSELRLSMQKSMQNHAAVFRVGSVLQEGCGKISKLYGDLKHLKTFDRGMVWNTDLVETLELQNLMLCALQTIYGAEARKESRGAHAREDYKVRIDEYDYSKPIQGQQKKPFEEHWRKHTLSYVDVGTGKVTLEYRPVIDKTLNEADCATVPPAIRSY
T1 sequence (P21912 29-280 partner): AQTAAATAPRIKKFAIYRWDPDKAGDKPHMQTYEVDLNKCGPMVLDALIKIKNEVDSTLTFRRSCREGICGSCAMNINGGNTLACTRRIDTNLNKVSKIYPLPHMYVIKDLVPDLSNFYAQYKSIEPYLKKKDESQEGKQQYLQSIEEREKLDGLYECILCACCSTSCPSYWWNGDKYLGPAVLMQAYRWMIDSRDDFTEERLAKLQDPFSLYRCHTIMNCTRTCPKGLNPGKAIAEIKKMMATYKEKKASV
T1 sequence (Q99643 30-169 partner): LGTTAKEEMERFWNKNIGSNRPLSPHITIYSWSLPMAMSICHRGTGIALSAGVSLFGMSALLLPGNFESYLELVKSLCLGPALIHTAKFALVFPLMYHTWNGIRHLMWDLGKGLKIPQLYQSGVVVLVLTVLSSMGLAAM
T1 sequence (O14521 57-159 partner): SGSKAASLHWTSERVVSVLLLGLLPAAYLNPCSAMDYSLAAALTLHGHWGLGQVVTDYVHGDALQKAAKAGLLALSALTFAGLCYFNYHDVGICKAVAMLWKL

## Cc1c2oc3c(C)ccc(C(=O)N[C@@H]4C(=O)N[C@H](C(C)C)C(=O)N5CCC[C@H]5C(=O)N(C)CC(=O)N(C)[C@@H](C(C)C)C(=O)O[C@@H]4C)c3nc-2c(C(=O)N[C@@H]2C(=O)N[C@H](C(C)C)C(=O)N3CCC[C@H]3C(=O)N(C)CC(=O)N(C)[C@@H](C(C)C)C(=O)O[C@@H]2C)c(N)c1=O [ActD, actinomycin D] (I: T[dV]P[Sar][NMeV] / II: T[dV]P[Sar][NMeV]; ester I:1-I:C, II:1-II:C; linker I:N-II:N via Actinocin(9to1))
AML3 cells [1]; AML3 and NPM1c-ES cells, as early as 1h
  mitochondrial network: fragmented the mitochondrial network
Complex II
  complex II activity: further inhibited the basal low level of complex II
PML NBs; AML2-NPM1c, AML3 cells or NPM1c-transfected MEFs
  PML NB reformation: very rapid NB reformation
PML NBs; primary NPM1c-AML blasts treated ex vivo
  PML NB restoration: PML NB restoration was also observed
AML3 cells [2]
  clonogenic activity: loss of clonogenic activity
AML3 cells [2]; NPM1c-positive AML3 cells
  senescence signs (TP53 activation, p21, Serpine-1, cGAMP, SA-β-Gal): multiple signs of senescence
[3]; after 5 days of ActD therapy
  leukemic burden: dramatically reduced the leukemic burden
[3]; two xenografted mice
  stabilization of human TP53 vs mouse Trp53: rapidly triggered selective stabilization of human TP53
Murine NPM1c-driven AML
  AML response with leukaemia-selective TP53 activation: AML regression and blast differentiation
Leukemic blasts; after a single course of daily ActD injections for 5 days
  blast decrease: 10^4 fold
Leukemic blasts; [6]
  completion of in vivo reformation of PML NBs: ≤ 12 h
  start of in vivo reformation of PML NBs: 6 h
TP53 [4]; AML3 cells, ex vivo, 5 nM
  TP53 activation: triggered rapid TP53 activation
TP53 [4]; normal bone marrow progenitors in vivo or ex vivo, human or mouse primary fibroblasts (WI-38, MEFs) ex vivo, low doses
  TP53 stabilization: no significant TP53 stabilization
NPM1c-AML
  clinical response: dramatic responses

## N#CCNC(=O)c1ccc(-c2ccnc(Nc3ccc(N4CCOCC4)cc3)n2)cc1 [CYT387]
AML2-NPM1c cells
  growth: inhibited growth, more potently in AML2-NPM1c than in AML2-NPM1 cells

## COc1cccc2c1C(=O)c1c(O)c3c(c(O)c1C2=O)C[C@@](O)(C(=O)CO)C[C@@H]3O[C@H]1C[C@H](N)[C@H](O)[C@H](C)O1 [Doxorubicin]
TP53 [5]
  TP53 activation: PML-dependent, NPM1c-enhanced and NAC-reversible TP53 activation
  mitochondrial morphology: triggered immediate mitochondrial rounding

## CC(=O)N[C@@H](CS)C(=O)O [N-acetyl cysteine]
PML NBs
  effect of ROS scavenger on ActD NB-restoration: completely blocked

## O=C(CC(=O)C(F)(F)F)c1cccs1 [TTFA, Thenoyl-trifluoroacetone]
AML3 cells [1]; AML3 cells
  mitochondrial superoxide: massively induced mitochondrial superoxide
PML NBs; NPM1c-transfected stable GFP-PML-III MEFs
  NB formation: restored NB formation
AML3 cells [2]
  clonogenic activity: decreased clonogenic activity

## N[C@@H](CCC(=O)N[C@@H](CS)C(=O)NCC(=O)O)C(=O)O [glutathione]
PML NBs
  effect of ROS scavenger on ActD NB-restoration: completely blocked

## venetoclax
AML3 cells [1]; AML3 cells, Venetoclax alone
  mitochondrial effects: induced mitochondrial fragmentation, reduction of mitochondrial membrane potential, production of ROS and leakage of mtDNA to the cytoplasm
